Results taken from paper PMC10224356, “Trisubstituted 1,3,5-Triazines as Histamine H4 Receptor Antagonists with Promising Activity In Vivo” (Molecules, 2023).

Tested on: mice
Test: Formalin test
Type: in vivo
Conditions: for Paw licking/biting, late phase of formalin test, % of the control group: 15–30 min after formalin
Description: The blockade of H4Rs expressed in inflammatory cells results in anti-inflammatory and analgesic effects. On the contrary, the activation of neuronal H4Rs leads to analgesia.
The procedure used was essentially the same as that described previously. […] The total time (in s) spent on licking the injected paw during periods of 0–5 min (early phase, neurogenic) and 15–30 min (late phase, inflammatory) was measured and was considered as an indicator of nociceptive behaviour. Before formalin injection different groups of mice were treated i.p. with vehicle (10 mL/kg, negative control) and the dose–response of the investigated compound.

Q: Which “Paw licking/biting, late phase of formalin test, % of the control group” value (50 mg/kg i.p.) does the source give for `CN1CCN(c2nc(N)nc(CC3CCCC3)n2)CC1` [Compound 6, 4-(Cyclopentylmethyl)-6-(4-methylpiperazin-1-yl)-1,3,5-triazin-2-amine] here?
A: 44.02 % of the control group

Q: What about the “Paw licking/biting, late phase of formalin test, % of the control group” value (75 mg/kg i.p.) of the same compound?
A: 56.62 % of the control group

Q: And the “Duration of nociceptive response, acute phase of formalin test” value (i.p., 0–5 min after formalin)?
A: did not significantly affect
